Test results reported in PubChem BioAssay (NCI).
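Briefly, cells in 96-well plates were exposed to five compound concentrations for 48 h, and endpoints were estimated by linear interpolation. Here, GI50 denotes the concentration required for 50% inhibition of growth. At the TGI there is no net growth.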

Key:
Assay in all cases: NCI-60 cell line screen, 48 h
[1] = test system: K-562 leukemia
[2] = test system: NCI-H460 lung
[3] = test system: EKVX NSCLC
[4] = test system: HOP-62 NSCLC
[5] = test system: SK-OV-3 ovarian
[6] = test system: TK-10 renal
[7] = test system: HL-60(TB) leukemia
[8] = test system: A549 NSCLC
[9] = test system: NCI-H226 lung
[10] = test system: CAKI-1 renal

Structure (SMILES) | TGI [1] | TGI [2] | TGI [3] | TGI [4] | TGI [5] | TGI [6] | TGI [7] | TGI [8] | TGI [9] | TGI [10] | GI50 [1] | GI50 [2] | GI50 [3] | GI50 [4] | GI50 [5] | GI50 [6] | GI50 [7] | GI50 [8] | GI50 [9] | GI50 [10]
CC(=O)N(C)c1cc(NCc2ccccc2)ccc1OCc1ccccc1 | 63.5 µM | 33.4 µM | 42.3 µM | > 100 µM | 43.1 µM | 33.5 µM | 77.9 µM | 36.7 µM | 35.9 µM | 38.6 µM |  |  |  |  |  |  |  |  |  | 
O=C(NCCCl)NCCN1c2nc3ccccc3cc2Sc2cc3ccccc3nc21 | > 25 µM | 1.94 µM | > 44.1 µM | 9.87 µM | > 44.3 µM | 28.1 µM | 5.12 µM | 23.1 µM | 19 µM | > 55.3 µM | 2140 nM | 475 nM | 3.45 µM | 2800 nM | 4410 nM | 7.12 µM | 1710 nM | 4640 nM | 1820 nM | 14700 nM
CCOC(=O)Nc1ccc2nc(N3CCCCCC3)sc2c1 | > 72.6 µM | > 38.7 µM | > 100 µM | > 100 µM | > 72.8 µM | > 91 µM | 21 µM | > 100 µM | > 68 µM | > 59.5 µM | 501 nM | 1400 nM | 5.14 µM | 3750 nM | 2360 nM | 5.07 µM | 436 nM | 3320 nM | 12300 nM | 2200 nM
CCC(CC)c1cc(N[C@H]2CC[C@H](N)C2)n2nccc2n1 | > 100 µM | > 100 µM | 5.16 µM | > 100 µM | > 100 µM | > 100 µM | 14.9 µM | > 100 µM | 48.7 µM | > 100 µM | 642 nM | 358 nM | 1.7 µM | 990 nM | 3440 nM | 3.58 µM | 324 nM | 511 nM | 969 nM | 423 nM
COc1ccc(C2CC(c3ccccc3)=NN2C(=O)c2cc(OC)c(OC)c(OC)c2)cc1O (stereo not given) | 27.1 µM | 12.6 µM | > 100 µM | 5.21 µM | 16.6 µM | > 100 µM | 1.05 µM | > 100 µM | 21.3 µM | > 100 µM | 297 nM | 354 nM | 3.04 µM | 397 nM | 414 nM | 14.7 µM | 244 nM | 545 nM | 1290 nM | 925 nM
